Some test systems named below: CCRF-CEM leukemia; DU-145 prostate; HCT-116 colon; MCF7 breast; MDA-MB-231 breast; MDA-MB-435; MOLT-4 leukemia; NCI-H522 lung; OVCAR-3 ovarian; OVCAR-4 ovarian; OVCAR-5 ovarian; SF-268 CNS; SK-MEL-5 melanoma; SNB-19 CNS; SR leukemia; SW-620 colon; MALME-3M melanoma; RPMI-8226 leukemia; RXF 393 renal.
What all share (test): DTP human tumour cell line panel, 48 h

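Grown in 96-well plates, cells were treated for 48 hours with each compound at five concentrations. Insufficient inhibition: endpoint recorded as highest concentration tested. The concentration for full growth arrest is given as TGI.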

For 7 molecules, TGI results are on record in PubChem BioAssay (NCI).

With `C1CSCCSS[C@@H]2CCCCC2SC1` (some centres undefined), the concentration for total growth inhibition (TGI) in the experiment with CCRF-CEM leukemia, with DU-145 prostate, in the experiment with HCT-116 colon, in the experiment with MCF7 breast, in the experiment on MDA-MB-231 breast and in the experiment with MDA-MB-435 was more than 100 µM in each case. Moreover, the TGI with MOLT-4 leukemia, in the experiment with NCI-H522 lung, with OVCAR-3 ovarian, in the experiment with OVCAR-4 ovarian, in the experiment on OVCAR-5 ovarian and in the experiment with SF-268 CNS was more than 100 µM in each case. The concentration for total growth inhibition (TGI) in the experiment on SK-MEL-5 melanoma, in the experiment on SNB-19 CNS, in the experiment on SR leukemia and in the experiment with SW-620 colon was more than 100 µM each time.

As to `O=C1C=CC(=O)c2c(O)c(Nc3ccc(OC(F)(F)F)cc3)c(Cl)c(O)c21`, the TGI in the experiment on CCRF-CEM leukemia came out at 4.32 µM; in the experiment with DU-145 prostate it was 1.37 µM; in the experiment with HCT-116 colon it was 0.455 µM; with MALME-3M melanoma, 2.47 µM; in the experiment on MCF7 breast it was 1.8 µM; in the experiment on MDA-MB-231 breast, 1.41 µM. Besides, the concentration for total growth inhibition (TGI) was 2.17 µM with MDA-MB-435; 2.87 µM in the experiment on NCI-H522 lung; 1.45 µM in the experiment with OVCAR-3 ovarian; 2.98 µM with OVCAR-4 ovarian; 3.16 µM in the experiment on OVCAR-5 ovarian; 0.285 µM with RPMI-8226 leukemia. Further, the TGI in the experiment on RXF 393 renal is 1.39 µM; in the experiment with SF-268 CNS it was 1.49 µM; with SK-MEL-5 melanoma, 5.15 µM; with SNB-19 CNS, 2.6 µM; in the experiment on SW-620 colon it was 2.7 µM.

On to `C[C@H](C(=O)N1C(=O)O[C@@H](c2ccccc2)[C@H]1C)[C@H](c1ccccc1)N(Cc1ccccc1)OC(=O)c1ccccc1`, for which the concentration for total growth inhibition (TGI) with CCRF-CEM leukemia, in the experiment on DU-145 prostate, with HCT-116 colon, in the experiment on MALME-3M melanoma, in the experiment with MCF7 breast and with MDA-MB-231 breast was more than 100 µM in each case. Moreover, the total growth inhibition concentration (TGI) in the experiment with MDA-MB-435, with MOLT-4 leukemia, with NCI-H522 lung, with OVCAR-4 ovarian, in the experiment with OVCAR-5 ovarian and in the experiment on RPMI-8226 leukemia was more than 100 µM throughout. The concentration for total growth inhibition (TGI) in the experiment on RXF 393 renal was more than 100 µM; in the experiment on SF-268 CNS, more than 100 µM; with SK-MEL-5 melanoma, 69.2 µM; in the experiment on SNB-19 CNS, more than 100 µM; in the experiment with SW-620 colon, more than 100 µM.

On to `O=C1CC(CC(O)C(O)CO)CC(=O)N1` (centres undefined), for which the TGI in the experiment with CCRF-CEM leukemia, in the experiment with DU-145 prostate, in the experiment with HCT-116 colon, in the experiment on MALME-3M melanoma, with MCF7 breast and in the experiment on MDA-MB-231 breast was more than 100 µM in each case. For the same molecule, the TGI with MDA-MB-435, in the experiment on MOLT-4 leukemia, in the experiment with NCI-H522 lung, in the experiment with OVCAR-3 ovarian, with RPMI-8226 leukemia and in the experiment on SF-268 CNS was more than 100 µM in each case. Also, the total growth inhibition concentration (TGI) in the experiment with SK-MEL-5 melanoma, in the experiment on SNB-19 CNS and in the experiment with SW-620 colon was more than 100 µM in each case.

Regarding `COc1ccc(C(F)(F)F)cc1NC(=O)O/N=C(/Cl)C(C)C`, the TGI is 31.9 µM in the experiment on CCRF-CEM leukemia; 34.3 µM with DU-145 prostate; 35.4 µM in the experiment on HCT-116 colon; 24.7 µM in the experiment with MALME-3M melanoma; more than 55.9 µM in the experiment on MCF7 breast; 37.4 µM with MDA-MB-231 breast. The TGI in the experiment with MDA-MB-435 is 48.1 µM; with MOLT-4 leukemia, 6.2 µM; in the experiment on NCI-H522 lung, 4.57 µM; in the experiment with OVCAR-3 ovarian, 34.8 µM; with OVCAR-4 ovarian, 35.8 µM; in the experiment with OVCAR-5 ovarian, 39.1 µM. For the same molecule, the TGI is 6.05 µM in the experiment with RPMI-8226 leukemia; 36.8 µM in the experiment on RXF 393 renal; 53.7 µM in the experiment on SF-268 CNS; 25.5 µM in the experiment on SK-MEL-5 melanoma; 42.6 µM in the experiment with SNB-19 CNS; more than 21.4 µM in the experiment on SW-620 colon.

On to `CCOC(=O)C1=C(C)N(Cc2ccc(Cl)cc2Cl)C2(O)C(OC)CC(=O)C3C(=O)N(c4ccccc4)C(=O)C132` (centres undefined), for which the total growth inhibition concentration (TGI) in the experiment with CCRF-CEM leukemia stood at 4.11 µM; in the experiment on DU-145 prostate it was 2.75 µM; with HCT-116 colon, 4.12 µM; in the experiment with MALME-3M melanoma it was 23.9 µM; with MCF7 breast, 8.46 µM; in the experiment with MDA-MB-231 breast, 7.16 µM. Further, the TGI in the experiment with MDA-MB-435 came to 11.8 µM; with MOLT-4 leukemia it was 7.82 µM; in the experiment on NCI-H522 lung it was 7.56 µM; with OVCAR-3 ovarian, 3.44 µM; with OVCAR-4 ovarian, 8.05 µM; in the experiment on OVCAR-5 ovarian, 28.5 µM. For the same molecule, the total growth inhibition concentration (TGI) stood at 8.61 µM in the experiment on RPMI-8226 leukemia; 3.14 µM in the experiment with RXF 393 renal; 14.3 µM with SF-268 CNS; 16.2 µM in the experiment with SK-MEL-5 melanoma; 11.8 µM with SNB-19 CNS; 7.15 µM in the experiment with SW-620 colon.

On to `CNNC1=NS(=O)(=O)c2cc(C(=O)OC)c(Cl)cc2S1`, for which the total growth inhibition concentration (TGI) in the experiment on CCRF-CEM leukemia, with DU-145 prostate, in the experiment on HCT-116 colon, with MALME-3M melanoma, with MCF7 breast and in the experiment with MDA-MB-231 breast was more than 10 µM throughout. Besides, the concentration for total growth inhibition (TGI) in the experiment on MDA-MB-435, in the experiment on MOLT-4 leukemia, in the experiment on NCI-H522 lung, with OVCAR-3 ovarian, in the experiment with OVCAR-4 ovarian and in the experiment with OVCAR-5 ovarian was more than 10 µM throughout. Moreover, the TGI in the experiment on RPMI-8226 leukemia, in the experiment with RXF 393 renal, in the experiment on SF-268 CNS, with SK-MEL-5 melanoma, in the experiment with SNB-19 CNS and in the experiment on SW-620 colon was more than 10 µM in each case.
